One assay relates to Vero. Description: Vero cell cytotoxicity, cytotoxicity control for flavivirus capping enzyme inhibitors (AID 588742). It is filed as functional. The following applies: Chlorocebus sabaeus.
Assay [1] has as its target Glutathione-S-transferase (Schistosoma japonicum, UniProt Q26513). Description: biotin-GST/anti-GST TR-FRET signal inhibitors, dose response, artefact control for Vif-APOBEC3G degradation inhibitor project, biochemical (AID 1117362). It is filed as functional.
For another assay, the target named is Transthyretin (Homo sapiens, UniProt P02766). Description: Luminescence-based cell-based high throughput dose response assay to identify activators of Transthyretin (TTR) transcription. It is filed as functional.
Assay [2] in a line: TRPM1 promoter luciferase reporter signal decrease, dose response, MITF inhibitor project, cell-based, SK-MEL-5, dry powder, set 9 (AID 651588). The format is functional.
Assay [3] is described as follows: MITF Orthogonal Assay: MALME3 CTG Assay Measured in Cell-Based System Using Plate Reader - 2084-04_Inhibitor_Dose_DryPowder_Activity_Set6. It is filed as functional. The following applies: MALME-3.
Assay [4] is described as follows: SK-MEL-5 parental cell viability reduction, dose response, orthogonal assay for MITF inhibitor project, CellTiter-Glo luminescence, dry powder, set 8 (AID 651586). It is filed as functional, cell-based.
Assay [5] can be described thus: MALME3 melanoma cell viability reduction, dose response, orthogonal assay for MITF inhibitor project, CellTiter-Glo luminescence, dry powder, set 5 (AID 651584). The format is functional, cell-based. The following applies: MALME-3.
The nature of assay [6]: MITF Orthogonal Assay: SK-MEL-5 CTG Assay Measured in Cell-Based System Using Plate Reader - 2084-02_Inhibitor_Dose_DryPowder_Activity_Set7. It is filed as functional.
Assay [7] can be described thus: MITF: Counter assay: A375 proliferation Measured in Cell-Based System Using Plate Reader - 2084-03_Inhibitor_Dose_DryPowder_Activity_Set8. It is filed as functional. Particulars: A-375.
Assay [8] can be described thus: TRPM1 promoter luciferase reporter signal decrease, dose response, MITF inhibitor project, cell-based, SK-MEL-5, dry powder, set 8 (AID 624430). The format is functional.
Assay [9] in a line: P. falciparum 3D7-ScDHODH growth inhibitors, dose response, SYBR Green, dry powder samples (AID 1159570).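 Also: parasite growth measured after 72 hours of compound exposure.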 The format is functional, cell-based.
A short description of assay [10]: HepG2 cell cytotoxicity, dose response, cytotoxicity control, plate reader, dry powder samples (AID 1159569).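 Also: inhibitor potency with signal falling toward the positive control level.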 It is filed as functional, cell-based.
A short description of assay [11]: P. falciparum Dd2 growth inhibitors, dose response, SYBR Green, cherry-picked samples (AID 1159567). The format is functional, cell-based.
Assay [12] is described as follows: P. falciparum Dd2 growth inhibitors, dose response, SYBR Green, dry powder samples (AID 1159566).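 Also: potency for growth inhibition with lower SYBR green DNA signal.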 It is filed as functional, cell-based.
The nature of assay [13]: P. falciparum ATP4 D1247Y mutant growth inhibitors, dose response, NITD609-resistant line, SYBR Green, dry powder (AID 1159571).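 Also: parasites synchronized at ring stage by sorbitol before testing.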 It is filed as functional, cell-based.
Assay [14] is described as follows: P. falciparum late gametocyte killing, dose response, luminescence (AID 1117278).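 Also: gametocytes exposed to compound for 24 hours.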 The format is functional, cell-based.
Assay [15] can be described thus: Jurkat T cell cytotoxicity, dose response, cytotoxicity control for P. falciparum gametocyte viability project, luminescence (AID 1117277).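 Also: potency reflects loss of cellular ATP meaning fewer viable cells.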 The format is functional, cell-based.

Activity calls are given as the source filed them.

The values below come from ChEMBL document CHEMBL1201862, “PubChem BioAssay data set” (2004).

Chain of Glutathione-S-transferase (Q26513 whole entry): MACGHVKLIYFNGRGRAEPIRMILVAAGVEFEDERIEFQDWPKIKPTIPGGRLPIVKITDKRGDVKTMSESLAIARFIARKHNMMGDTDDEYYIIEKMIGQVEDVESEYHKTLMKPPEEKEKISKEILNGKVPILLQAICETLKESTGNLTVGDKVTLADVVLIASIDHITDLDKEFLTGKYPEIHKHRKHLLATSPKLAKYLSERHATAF

For `Cc1nn(-c2ccccn2)c2c1C(=O)C(Br)CC2` (configuration not stated), the cytotoxic concentration (CC50) in the assay on Vero is > 40 µM (active). In addition, the IC50 in assay [1] is 65.6 µM (active).

Consider `Cn1cc(C2CC(c3ccccc3)=NN2C(=O)c2ccccc2)c2ccccc21` (configuration not stated), for which the EC50 on Transthyretin is > 167 µM (inactive).

As to `CC(C)N1CCN(C2=C(Nc3ccc(F)cc3F)C(=O)c3ccccc3C2=O)CC1`, the half-maximal activity concentration (AC50) in assay [2] is 9.91 µM (active); in assay [3], 25.4 µM (active); in assay [4] it was 59.1 µM (active); in [5], 25.4 µM (active); in assay [6], 8.73 µM (active); in assay [7] it was > 70 µM (inactive). In addition, in assay [8], the AC50 was 2.16 µM (active).

With `OC[C@@H]1[C@@H](c2ccccc2)C2(CN(CCC(F)(F)F)C2)N1Cc1ccccc1`, the AC50 in [9] was 2.89 µM (active); in assay [10] it was 69.1 µM (active); in assay [11], 2.27 µM (active); in assay [12] it was 2.48 µM (active); in assay [13], 2.36 µM (active).

For `OCC1(Cc2ccccc2)CCN(Cc2cnc(-c3ccc(Cl)cc3)nc2)CC1`, the IC50 in assay [14] is > 109 µM (inactive); in [15] it was > 83.3 µM (inactive).
